We go through five compounds from US20020156077A1, “Non-steroidal estrogen receptor ligands” (priority 2001, published 2002).

Like-named read-outs stand apart in the source and are kept apart here.

In test [1] the target is human recombinant estrogen receptor beta (Homo sapiens, UniProt Q92731). As to the kind of experiment: Estrogen receptor beta binding assay, displacement of [3H] Estradiol. As to the method: (§1) The human estrogen receptor occurs in two subtypes, alpha and beta. The stable expression of these individual receptor subtypes in cells provides a rapid and accurate means of quantifying the direct interaction of a test article with the estrogen binding sites. Briefly, this assay is conducted in 96 well plates where a series of concentrations of test article are used to displace tritiated estradiol from either estrogen receptor alpha or estrogen receptor beta bearing cell membranes, under equilibrium conditions. […] This measurement is the primary test for mediation of the estrogen receptor and can also be used to measure the relative selectivity of the test article for either the alpha or beta subtype.
The beta subtype assay also allowed the determination of an IC50 value of the test article under the same conditions as for the alpha subtype assay with the exception that a 7.5 ng aliquot of receptor protein preparation was used.
Background: Loss of bound radioactivity is the signal in a displacement assay; it reports binding, not function.

The target of test [2] is T1, human recombinant estrogen receptor alpha (Homo sapiens, UniProt P03372).
T1 construct: purchased PanVera Corporation
T1 sequence (P03372 1-595): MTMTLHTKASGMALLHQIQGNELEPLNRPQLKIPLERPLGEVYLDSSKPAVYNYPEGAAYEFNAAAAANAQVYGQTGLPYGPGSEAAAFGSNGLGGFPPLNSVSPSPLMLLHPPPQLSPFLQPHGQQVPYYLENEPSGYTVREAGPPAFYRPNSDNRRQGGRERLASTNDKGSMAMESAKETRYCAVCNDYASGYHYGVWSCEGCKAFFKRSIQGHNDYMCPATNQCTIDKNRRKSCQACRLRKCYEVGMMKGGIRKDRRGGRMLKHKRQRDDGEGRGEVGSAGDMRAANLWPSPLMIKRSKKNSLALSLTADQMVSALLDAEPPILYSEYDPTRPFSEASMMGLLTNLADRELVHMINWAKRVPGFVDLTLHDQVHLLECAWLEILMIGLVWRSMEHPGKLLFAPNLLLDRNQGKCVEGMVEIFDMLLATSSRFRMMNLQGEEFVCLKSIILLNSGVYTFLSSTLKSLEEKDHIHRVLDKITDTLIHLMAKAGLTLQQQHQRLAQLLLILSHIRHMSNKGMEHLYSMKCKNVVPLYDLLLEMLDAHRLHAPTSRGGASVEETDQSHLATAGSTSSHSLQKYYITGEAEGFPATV
The test can be described thus: Estrogen receptor alpha binding assay, displacement of [3H] Estradiol. The method, then: as §1
The alpha subtype assay measures the binding of [^3H] Estradiol to the human recombinant estrogen receptor. […] Briefly, after proper dilution, a 4.5 ng aliquot of receptor protein in modified Tris-HCL pH 7.5 buffer is incubated with 0.5 nM [^3H] Estradiol for 2 hours at 25° C. Non-specific binding is estimated in the presence of 1.0 μM diethylstilbestrol. Membranes are filtered and washed 3 times, and the filters are counted to determine [^3H] Estradiol specifically bound. Under the same conditions the receptor protein is incubated with varied concentrations of test article ranging from 1 nM to 1 μM and the displacement of [^3H] Estradiol is measured in duplicate. The measurement of the displaced tritiated estradiol allows the determination of an IC50 value, a direct measure of the test articles interaction with the estrogen receptor alpha.

For test [3], the system named is tamoxifen-resistant breast cancers. The following applies: tamoxifen-resistant breast cancer patients; cited from earlier work.
The test system of test [4] is MCF-7 cells. As to the kind of experiment: MCF-7 cell proliferation assay (MTT), estradiol stimulated versus unstimulated. It counts as cell-based, human. The following applies: FIGS. 1 and 2. The text has this:
Those skilled in the art will appreciate that several acceptable estrogen receptor-binding assays are known and available for initial screening of the compounds of the present invention. The initial screen chosen was a human cell line assay, namely the MCF-7 cell proliferation assay for detecting anti-estrogenic/estrogenic activity. The MCF-7 human breast cancer cell line has been used as an industry standard for the evaluation of estrogen receptor antagonists. MCF-7 cells are estrogen-receptor positive (ER+) cancer cells that respond to estradiol stimulation. Antiestrogenic activity is measured in terms of a test article's ability to inhibit estradiol stimulated proliferation, implying an antagonistic action on the estrogen receptor and estogenic activity can be inferred from increased proliferation. The following testing procedure was used.
MCF-7 cells were maintained in RPMI medium free of phenol red and supplemented with 5% charcoal-stripped foetal calf serum, hydrocortisone, bovine insulin, penicillin and streptomycin until they reached 70% confluence. […] Cell survival was evaluated after 3-6 days, by replacing the culture media with 150 μl of fresh medium containing 10 mM 4-(2-hydroxyethyl)-1-piperazineethamsulfonic acid buffer (pH 7.4) followed by addition of 50 μl of 2.5 mg/ml of 3-(4,5-dimethylthiazo-2-yl)-2,5-diphenyltetrazolium bromide (MTT). […]

[5] abbreviates: 0.5 nM [3H] Estradiol, 2 hours at 25° C, 4.5 ng receptor protein, read-out: IC50 Value, ER Subtype Alpha.
The mark [6] stands for this setting: 0.5 nM [3H] Estradiol, 2 hours at 25° C, 7.5 ng receptor protein, read-out: IC50 Value, ER Subtype Beta.

human recombinant estrogen receptor beta, sequence (Q92731 whole entry): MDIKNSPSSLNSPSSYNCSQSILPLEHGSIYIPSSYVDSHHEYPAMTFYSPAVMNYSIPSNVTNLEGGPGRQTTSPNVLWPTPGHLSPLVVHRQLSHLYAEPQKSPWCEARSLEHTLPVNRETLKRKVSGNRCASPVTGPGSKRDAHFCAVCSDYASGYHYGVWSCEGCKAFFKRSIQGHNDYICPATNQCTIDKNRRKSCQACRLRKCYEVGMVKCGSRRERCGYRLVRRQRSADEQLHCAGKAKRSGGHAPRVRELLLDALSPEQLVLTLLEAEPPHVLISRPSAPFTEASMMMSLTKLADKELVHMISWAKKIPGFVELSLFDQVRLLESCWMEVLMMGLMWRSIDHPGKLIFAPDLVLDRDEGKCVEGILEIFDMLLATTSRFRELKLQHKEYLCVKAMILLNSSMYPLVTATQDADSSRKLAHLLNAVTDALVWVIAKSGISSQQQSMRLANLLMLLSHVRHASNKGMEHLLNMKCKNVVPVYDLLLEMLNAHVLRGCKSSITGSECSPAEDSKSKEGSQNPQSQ

By IC50 is commonly meant the concentration that inhibits the measured activity by half. Take `C=C(C)c1ccc2c(c1)c(-c1ccc(OCCN3CCCCC3)cc1)cc1cc(O)cc(C)c12` [formula 5]: the half-maximal inhibitory concentration (IC50) in test [1] amounted to 0.02 µM; in test [2] (setting [5]), 0.032 µM.

On to `C[C@]12CC[C@@H]3c4ccc(O)cc4C[C@@H](CCCCCCCCC[S+]([O-])CCCC(F)(F)C(F)(F)F)[C@H]3[C@@H]1CC[C@@H]2O` (stereo partly drawn) [ICI 182780], for which, in test [3], the “tamoxifen-resistant patients who responded” value is recorded as “approximately two-thirds”.

As to `CC(=O)c1ccc2c(c1)c(-c1ccc(OCCN3CCCCC3)cc1)cc1cc(O)cc(C)c12` [Formula 4, 1-[7-hydroxy-5-methyl-10-[4-(2-piperidin-1-yl-ethoxy)-phenyl]-phenanthren-2-yl]-ethanone], the “effect on estradiol stimulated MCF-7 cell proliferation (shift of dose-response curves)” value in test [4] is reported as “antagonizing the effect of estradiol”.

Take `CC(C)=C(C)c1ccc2c(c1)c(-c1ccc(OCCN3CCCCC3)cc1)cc1cc(O)cc(C)c12` [formula 6, 7-(1,2-dimethylpropenyl)-4-methyl-9-[4-(2-piperidin-1-yl-ethoxy)-phenyl]-phenanthren-2-ol]: the figures for the 50% inhibitory concentration (IC50) in test [1] (setting [6]) and in test [2] were 0.009 µM and 0.018 µM, respectively.

Consider `Cc1cc(O)cc2cc(-c3ccc(OCCN4CCCCC4)cc3)c3cc(C(=O)C(C)C)ccc3c12` [formula 3, 1-[7-hydroxy-5-methyl-10-[4-(2-piperidin-1-yl-ethoxy)-phenyl]-phenanthren-2-yl]-2-methyl-propan-1-one], for which the IC50 in test [1] (setting [6]) was 0.12 µM; in test [2] (setting [5]), 0.039 µM. Also, in test [4], the “effect on estradiol stimulated MCF-7 cell proliferation (shift of dose-response curves)” value was “antagonizing the effect of estradiol”.
